Measured values: US8933100B2 (priority 2012, dated 2015)
Like-named read-outs stand apart in the source and are kept apart here.

How the values were obtained:
CYP2C9 [1] = target: T1, CYP2C9 (Homo sapiens, UniProt P11712); test: Time-dependent CYP inhibition (Method 1), human hepatic microsome; type: in vitro ADME; details: 30 min pre-incubation at 37° C., tolbutamide, n = 2
Experimental: (§2) The test substance was added to an enzyme solution (containing human hepatic microsome (0.2 mg/mL), 100 mM Kpi and 0.1 mM EDTA), and pre-incubated for 30 minutes at 37° C. in the presence of or absence of the coenzyme. The final concentration of the test substance was set at 0.1, 0.2, 0.4, 0.5, 1, 2, 10 or 50 μM. A NADPH generating system (60 mM MgCl2 solution containing 3.6 mM β-NADP^+, 90 mM glucose-6 phosphate and 1 Unit/mL glucose-6-phosphate dehydrogenase, incubated for 5 minutes to generate NADPH) was used as the coenzyme. After pre-incubation, part of the reaction solution was collected, diluted 10 times by mixing with a model substrate solution and the NADPH generating system, and then incubated for 10 minutes at 37° C. An equal amount of a mixed solution of acetonitrile and methanol (1:1, containing 0.05 μM dextrophan or 0.05 μM propranolol as an internal standard) was added to terminate the reaction, and metabolites of the model substrate in the reaction solution were measured by LC-MS/MS. […] The ratio relative to the amount of model substrate metabolites in the control test was given as residual activity. The ratio of residual activity in the presence of NADPH relative to residual activity in the absence of NADPH was evaluated, and the ratio of 80% or less was defined “+”, while the ratio of above 80% was defined as “−”.

CYP2C19 [2] = target: T2, CYP2C19 (Homo sapiens, UniProt P33261); test: as above; type: in vitro ADME; details: 30 min pre-incubation at 37° C., S-mephenytoin, n = 2
Experimental: as §2

CYP1A2 [3] = target: T3, CYP1A2 (Homo sapiens, UniProt P05177); details: 30 min pre-incubation at 37° C., phenacetin, n = 2
T3 sequence (P05177 1-516): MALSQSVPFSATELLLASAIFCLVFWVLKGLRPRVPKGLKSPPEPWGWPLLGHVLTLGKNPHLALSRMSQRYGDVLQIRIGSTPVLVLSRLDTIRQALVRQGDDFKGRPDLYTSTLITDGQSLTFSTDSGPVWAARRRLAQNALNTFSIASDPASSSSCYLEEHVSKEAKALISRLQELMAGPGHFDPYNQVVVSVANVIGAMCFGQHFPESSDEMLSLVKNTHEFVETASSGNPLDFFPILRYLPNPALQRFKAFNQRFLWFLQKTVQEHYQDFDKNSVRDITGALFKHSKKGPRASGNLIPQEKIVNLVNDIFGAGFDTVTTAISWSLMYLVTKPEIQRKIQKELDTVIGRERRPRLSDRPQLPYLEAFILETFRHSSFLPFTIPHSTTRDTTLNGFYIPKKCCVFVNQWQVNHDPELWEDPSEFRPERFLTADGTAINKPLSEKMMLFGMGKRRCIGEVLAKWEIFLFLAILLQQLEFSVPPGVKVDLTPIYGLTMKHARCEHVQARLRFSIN
Experimental: as §2

CYP3A4 [4] = target: T4, CYP3A4 (Homo sapiens, UniProt P08684); test: Time-dependent CYP inhibition (Method 1), human hepatic microsome; type: in vitro ADME; details: 30 min pre-incubation at 37° C., midazolam, n = 2
Experimental: as §2

CYP2D6 [5] = target: T5, CYP2D6 (Homo sapiens, UniProt P10635); test: as above; type: in vitro ADME; details: 30 min pre-incubation at 37° C., bufuralol, n = 2
Experimental: as §2

male BALB/c mice = test: In vivo efficacy test by forced swimming; parameters: species or system mouse; details: oral, 1 hour before test; Example 1 10, 30 or 100 mg/kg, paroxetine 30 or 100 mg/kg; last 4 minutes; FIG. 1
Experimental: After 1 hour, the mice were placed individually in glass cylinders (19 cm in height, 9 cm in diameter) holding 9 cm of water, and observed at 23° C. for 6 minutes, during which time their behavior was recorded with a video camera. The control group was given the same amount of vehicle (0.5% methyl cellulose solution, 10 mL/kg).
The immobility times during the last 4 minutes were calculated from the video recordings. The mice were considered to be immobile if the following three behavioral criteria were met: they stopped struggling, stopped climbing, and floated on the water basically immobile, with only the slight movement necessary to keep their heads above water.

serotonin transporter = target: T6, serotonin transporter (Rattus norvegicus, UniProt P31652); test: Inhibitory action on serotonin transporter (fluorescent substrate uptake in rat platelets); type: cell-based
T6 construct: evaluated using rat platelets expressing serotonin transporters; from tissue
Experimental: That is, the test compound was added to rat platelets, the fluorescent substance of a Neurotransmitter Transporter Activity Assay Kit (Molecular Devices, R8174) was added beginning after 15 minutes, and changes in fluorescent intensity from uptake of the fluorescent substance were measured over time to evaluate the inhibitory effect of the test compound on serotonin transporter.
2 Centrifugation was carried out at 350 g at room temperature for 5 minutes, and the supernatant containing platelet-rich plasma was collected in 15 ml falcon tubes.
3 Centrifugation was carried out at 2100 g at room temperature for 10 minutes to obtain platelets as a pellet. Ca-free K5 buffer was added in the amount of 0.7 times the amount of platelet-rich plasma obtained in operation 2, and the pellet was triturated by pipetting.
5 The fluorescent substance of a Neurotransmitter Transporter Activity Assay Kit was added, and changes in fluorescent intensity over time from uptake of the fluorescent substance through serotonin transporters were measured with a FDSS 6000 (Hamamatsu Photonics).

CYP2C9 [6] = target: T1, CYP2C9; test: Competitive CYP inhibition (Method 2), human hepatic microsome; type: in vitro ADME
Experimental: (§1) The inhibition rate was determined from the amounts of model substrate metabolites with and without addition of the test substance at each test substance concentration, and the IC50 value was calculated from the inhibition rate (calculation method in accordance with Xenobiotica, 1999, 29(1), 53-75).

CYP3A4 [7] = target: T4, CYP3A4; test: as above; type: in vitro ADME
Experimental: as §1

CYP2C19 [8] = target: T2, CYP2C19; test: as above; type: in vitro ADME
Experimental: as §1

CYP2D6 [9] = target: T5, CYP2D6; test: as above; type: in vitro ADME
Experimental: as §1

CYP1A2 [10] = target: T3, CYP1A2; test: as above; type: in vitro ADME; parameters: containing human hepatic microsome (0.2 mg/mL); from tissue; host or cells: human hepatic microsomal fraction; details: tested at 1 or 10 μM, phenacetin 10 μM, n = 2; read-out: CYP1A2 IC50 score (competitive inhibition)
Experimental: as §1

T4 sequence (P08684 whole entry): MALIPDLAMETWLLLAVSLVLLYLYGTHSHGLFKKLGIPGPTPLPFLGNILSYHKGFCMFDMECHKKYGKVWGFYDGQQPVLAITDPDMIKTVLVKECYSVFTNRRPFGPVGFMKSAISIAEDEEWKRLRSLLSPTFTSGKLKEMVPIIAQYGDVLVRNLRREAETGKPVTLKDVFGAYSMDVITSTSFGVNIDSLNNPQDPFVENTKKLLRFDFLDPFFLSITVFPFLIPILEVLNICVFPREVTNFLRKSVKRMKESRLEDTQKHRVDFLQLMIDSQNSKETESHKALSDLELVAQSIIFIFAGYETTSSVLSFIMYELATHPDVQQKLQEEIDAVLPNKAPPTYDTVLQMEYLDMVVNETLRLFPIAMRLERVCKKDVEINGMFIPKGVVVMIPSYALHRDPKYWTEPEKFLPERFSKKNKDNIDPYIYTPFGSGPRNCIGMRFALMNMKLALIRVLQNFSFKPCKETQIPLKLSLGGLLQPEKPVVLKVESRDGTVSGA
T5 sequence (P10635 whole entry): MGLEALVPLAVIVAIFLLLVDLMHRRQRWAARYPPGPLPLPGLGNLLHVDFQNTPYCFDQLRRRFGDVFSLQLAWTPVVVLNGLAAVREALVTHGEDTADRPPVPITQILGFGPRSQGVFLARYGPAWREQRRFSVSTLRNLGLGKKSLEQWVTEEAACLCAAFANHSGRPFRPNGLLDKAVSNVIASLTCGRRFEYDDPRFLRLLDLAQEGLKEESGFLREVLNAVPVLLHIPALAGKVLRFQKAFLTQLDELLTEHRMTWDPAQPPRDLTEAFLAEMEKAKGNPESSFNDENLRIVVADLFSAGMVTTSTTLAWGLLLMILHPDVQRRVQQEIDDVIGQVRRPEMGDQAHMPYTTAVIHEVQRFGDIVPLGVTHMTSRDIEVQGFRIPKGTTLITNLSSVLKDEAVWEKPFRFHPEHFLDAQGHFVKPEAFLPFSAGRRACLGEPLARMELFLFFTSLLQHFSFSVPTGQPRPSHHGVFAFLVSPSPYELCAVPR
T1 sequence (P11712 whole entry): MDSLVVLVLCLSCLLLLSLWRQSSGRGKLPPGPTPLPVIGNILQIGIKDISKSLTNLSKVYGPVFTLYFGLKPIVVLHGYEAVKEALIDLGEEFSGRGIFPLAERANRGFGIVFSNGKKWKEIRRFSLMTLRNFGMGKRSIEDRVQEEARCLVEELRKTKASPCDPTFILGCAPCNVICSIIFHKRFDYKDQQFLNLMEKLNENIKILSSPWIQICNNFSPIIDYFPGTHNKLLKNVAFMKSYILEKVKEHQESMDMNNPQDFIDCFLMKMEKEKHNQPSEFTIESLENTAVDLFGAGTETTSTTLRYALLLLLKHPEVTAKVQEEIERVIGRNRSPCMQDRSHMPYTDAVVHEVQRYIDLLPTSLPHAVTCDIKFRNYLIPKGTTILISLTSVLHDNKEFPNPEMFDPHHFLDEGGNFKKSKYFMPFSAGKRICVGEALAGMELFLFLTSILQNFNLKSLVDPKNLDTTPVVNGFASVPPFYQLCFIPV
T2 sequence (P33261 whole entry): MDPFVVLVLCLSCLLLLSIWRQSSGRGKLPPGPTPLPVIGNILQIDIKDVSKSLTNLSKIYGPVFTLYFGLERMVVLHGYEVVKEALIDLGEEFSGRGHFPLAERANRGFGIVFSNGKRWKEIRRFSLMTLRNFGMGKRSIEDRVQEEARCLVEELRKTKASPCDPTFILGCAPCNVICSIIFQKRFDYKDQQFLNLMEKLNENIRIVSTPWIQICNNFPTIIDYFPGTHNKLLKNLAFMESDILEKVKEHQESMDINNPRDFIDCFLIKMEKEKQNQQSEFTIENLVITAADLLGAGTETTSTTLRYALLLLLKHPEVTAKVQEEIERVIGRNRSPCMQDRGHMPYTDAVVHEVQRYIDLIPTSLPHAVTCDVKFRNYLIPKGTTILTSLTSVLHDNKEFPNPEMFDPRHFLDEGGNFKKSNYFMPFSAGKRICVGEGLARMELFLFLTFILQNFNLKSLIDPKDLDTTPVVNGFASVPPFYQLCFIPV
T6 sequence (P31652 whole entry): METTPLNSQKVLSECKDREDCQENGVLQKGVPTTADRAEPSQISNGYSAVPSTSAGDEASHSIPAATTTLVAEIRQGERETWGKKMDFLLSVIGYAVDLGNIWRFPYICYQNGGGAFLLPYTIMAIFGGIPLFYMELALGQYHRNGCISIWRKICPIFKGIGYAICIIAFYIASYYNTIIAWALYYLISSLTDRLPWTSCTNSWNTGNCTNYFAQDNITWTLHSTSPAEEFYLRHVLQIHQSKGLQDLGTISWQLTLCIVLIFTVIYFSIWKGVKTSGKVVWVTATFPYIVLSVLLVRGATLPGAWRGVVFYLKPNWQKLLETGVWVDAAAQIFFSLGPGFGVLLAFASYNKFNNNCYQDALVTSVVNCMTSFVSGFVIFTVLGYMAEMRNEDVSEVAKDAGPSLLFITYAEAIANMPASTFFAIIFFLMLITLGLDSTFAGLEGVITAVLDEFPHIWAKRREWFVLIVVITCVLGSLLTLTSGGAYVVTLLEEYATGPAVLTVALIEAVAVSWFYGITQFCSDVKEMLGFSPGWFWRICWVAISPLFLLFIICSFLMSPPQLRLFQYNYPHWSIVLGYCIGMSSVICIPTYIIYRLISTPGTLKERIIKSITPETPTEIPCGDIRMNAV

For `Fc1ccc([C@@H]2CCNC[C@H]2COc2ccc3c(c2)COC3)cc1` [Example 1, (3S,4R)-3-[(1,3-dihydro-2-benzofuran-5-yloxy)methyl]-4-(4-fluorophenyl)piperidine], the “Ratio of residual CYP2C9 activity in presence vs absence of NADPH after pre-incubation” value (CYP2C9 [1]; 10 μM) was “− (the ratio of above 80% was defined as “−”)”, the “Ratio of residual CYP2C9 activity in presence vs absence of NADPH after pre-incubation” value (CYP2C9 [1]; 50 μM) was “− (the ratio of above 80% was defined as “−”)” and the “Ratio of residual CYP2C19 activity in presence vs absence of NADPH after pre-incubation” value (CYP2C19 [2]; 10 μM) was “− (the ratio of above 80% was defined as “−”)”. The “Ratio of residual CYP2C19 activity in presence vs absence of NADPH after pre-incubation” value (CYP2C19 [2]; 50 μM) was “− (the ratio of above 80% was defined as “−”)”, the “Ratio of residual CYP1A2 activity in presence vs absence of NADPH after pre-incubation” value (CYP1A2 [3]; 10 μM) was “− (the ratio of above 80% was defined as “−”)” and the “Ratio of residual CYP1A2 activity in presence vs absence of NADPH after pre-incubation” value (CYP1A2 [3]; 50 μM) was “− (the ratio of above 80% was defined as “−”)”. The “Ratio of residual CYP3A4 activity in presence vs absence of NADPH after pre-incubation” value (CYP3A4 [4]; 10 μM) was “− (the ratio of above 80% was defined as “−”)”, the “Ratio of residual CYP3A4 activity in presence vs absence of NADPH after pre-incubation” value (CYP3A4 [4]; 50 μM) was “− (the ratio of above 80% was defined as “−”)” and the “Ratio of residual CYP2D6 activity in presence vs absence of NADPH after pre-incubation” value (CYP2D6 [5]; 10 μM) was “− (the ratio of above 80% was defined as “−”)”. The “Ratio of residual CYP2D6 activity in presence vs absence of NADPH after pre-incubation” value (CYP2D6 [5]; 50 μM) was “− (the ratio of above 80% was defined as “−”)”, the “immobility time in forced swimming test” value (male BALB/c mice) was “dose-dependently suppressed immobility time” and the IC50 (serotonin transporter) was 2.4 nM. For the same compound, the IC50 (CYP2C9 [6]) was greater than 10 µM, the IC50 (CYP3A4 [7]) was greater than 10 µM and the IC50 (CYP2C19 [8]) was greater than 10 µM. The IC50 (CYP2D6 [9]) was greater than 10 µM and the IC50 (CYP1A2 [10]) was greater than 10 µM.

For `Fc1ccc([C@@H]2CCNC[C@H]2COc2ccc3c(c2)OCO3)cc1` [Paroxetine, (3S,4R)-3-[(2H-1,3-benzodioxol-5-yloxy)methyl]-4-(4-fluorophenyl)piperidine, reference compound], the “immobility time in forced swimming test” value (male BALB/c mice) was “dose-dependently suppressed immobility time”, the IC50 (CYP2C9 [6]; tested at 1 or 10 μM, tolbutamide 100 μM, n = 2, read-out: CYP2C9 IC50 score (competitive inhibition)) was greater than 10 µM and the IC50 (CYP1A2 [10]) was greater than 10 µM.
